Laboratory results reported in ChEMBL document CHEMBL3739282, “An efficient green synthesis of 2-arylbenzothiazole analogues as potent antibacterial and anticancer agents” (Bioorg Med Chem Lett, 2016).
Values after ≈ are worked out from the molar mass of the structure shown.

How the values were obtained:
[1] = tested on: HeLa; experiment: Cytotoxicity against human HeLa cells assessed as cell death after 24 hrs by MTT assay; format: functional, cell-based
[2] = tested on: Bacillus subtilis; experiment: Antibacterial activity against Bacillus subtilis assessed as growth inhibition incubated for 24 hrs at 37 degC by agar well diffusion method; format: functional
[3] = tested on: MCF7; experiment: Cytotoxicity against human MCF7 cells assessed as cell death after 24 hrs by MTT assay; format: functional, cell-based; conditions: MCF7, 24 h
[4] = tested on: Escherichia coli; experiment: Antibacterial activity against Escherichia coli assessed as growth inhibition incubated for 24 hrs at 37 degC by agar well diffusion method; format: functional
[5] = tested on: Staphylococcus aureus; experiment: Antibacterial activity against Staphylococcus aureus assessed as growth inhibition incubated for 24 hrs at 37 degC by agar well diffusion method; format: functional
[6] = tested on: Salmonella; experiment: Antibacterial activity against Salmonella assessed as growth inhibition incubated for 24 hrs at 37 degC by agar well diffusion method; format: functional
[7] = Stability of the compound in GSH at 10^-5 M after 48 hrs by UV-vis spectroscopic analysis; format: physicochemical; conditions: 10 µM

Oc1ccccc1-c1nc2ccccc2s1
IC50 [1]: 30.6 µM
MIC [2]: 100 µg/mL (≈ 440 µM)
IC50 [3]: 26.8 µM
MIC [4]: 100 µg/mL (≈ 440 µM)
MIC [5]: 100 µg/mL (≈ 440 µM)
MIC [6]: 100 µg/mL (≈ 440 µM)

GENTAMICIN
MIC [2]: 2 µg/mL
MIC [4]: 2 µg/mL
MIC [5]: 1 µg/mL
MIC [6]: 2 µg/mL

Cc1ccccc1-c1nc2ccccc2s1
IC50 [1]: 28.2 µM
MIC [2]: 100 µg/mL (≈ 444 µM)
IC50 [3]: 20.4 µM
MIC [4]: 100 µg/mL (≈ 444 µM)
MIC [5]: 100 µg/mL (≈ 444 µM)
MIC [6]: 100 µg/mL (≈ 444 µM)

COc1cccc(-c2nc3ccccc3s2)c1O
IC50 [1]: 32.6 µM
MIC [2]: > 200 µg/mL
IC50 [3]: 28.6 µM
MIC [4]: > 200 µg/mL
MIC [5]: > 200 µg/mL
MIC [6]: > 200 µg/mL

NC[C@H]1O[C@H](O[C@H]2[C@H](O)[C@@H](O[C@H]3O[C@H](CO)[C@@H](O)[C@H](N)[C@H]3O)[C@H](N)C[C@@H]2N)[C@H](N)C[C@@H]1O [TOBRAMYCIN]
MIC [2]: 3 µg/mL (≈ 6.42 µM)
MIC [4]: 3 µg/mL (≈ 6.42 µM)
MIC [5]: 1.5 µg/mL (≈ 3.21 µM)
MIC [6]: 3 µg/mL (≈ 6.42 µM)

Clc1ccccc1-c1nc2ccccc2s1
IC50 [1]: 18.2 µM
MIC [2]: 12.5 µg/mL (≈ 50.9 µM)
IC50 [3]: 10.7 µM
MIC [4]: 12.5 µg/mL (≈ 50.9 µM)
MIC [5]: 12.5 µg/mL (≈ 50.9 µM)
MIC [6]: 12.5 µg/mL (≈ 50.9 µM)

c1ccc(-c2nc3ccccc3s2)cc1 [2-PHENYLBENZO[D]THIAZOLE]
Stability [7]: Stable
IC50 [1]: 22.1 µM
MIC [2]: 25 µg/mL (≈ 118 µM)
IC50 [3]: 18.5 µM
MIC [4]: 50 µg/mL (≈ 237 µM)
MIC [5]: 50 µg/mL (≈ 237 µM)
MIC [6]: 25 µg/mL (≈ 118 µM)

Fc1ccc(-c2nc3ccccc3s2)cc1
IC50 [1]: 16.6 µM
MIC [2]: 12.5 µg/mL (≈ 54.5 µM)
IC50 [3]: 9.85 µM
MIC [4]: 6.25 µg/mL (≈ 27.3 µM)
MIC [5]: 6.25 µg/mL (≈ 27.3 µM)
MIC [6]: 12.5 µg/mL (≈ 54.5 µM)

Brc1cccc(-c2nc3ccccc3s2)c1
IC50 [1]: 17.4 µM
MIC [2]: 12.5 µg/mL (≈ 43.1 µM)
IC50 [3]: 10.5 µM
MIC [4]: 12.5 µg/mL (≈ 43.1 µM)
MIC [5]: 12.5 µg/mL (≈ 43.1 µM)
MIC [6]: 12.5 µg/mL (≈ 43.1 µM)

c1ccc2[nH]c(-c3nc4ccccc4s3)cc2c1
IC50 [1]: 15.2 µM
MIC [2]: 3.12 µg/mL (≈ 12.5 µM)
IC50 [3]: 9.26 µM
MIC [4]: 3.12 µg/mL (≈ 12.5 µM)
MIC [5]: 3.12 µg/mL (≈ 12.5 µM)
MIC [6]: 3.12 µg/mL (≈ 12.5 µM)

c1csc(-c2nc3ccccc3s2)c1
IC50 [1]: 28.5 µM
MIC [2]: 25 µg/mL (≈ 115 µM)
IC50 [3]: 22.6 µM
MIC [4]: 12.5 µg/mL (≈ 57.5 µM)
MIC [5]: 12.5 µg/mL (≈ 57.5 µM)
MIC [6]: 25 µg/mL (≈ 115 µM)

c1coc(-c2nc3ccccc3s2)c1
IC50 [1]: 22.6 µM
MIC [2]: 50 µg/mL (≈ 248 µM)
IC50 [3]: 17.6 µM
MIC [4]: 50 µg/mL (≈ 248 µM)
MIC [5]: 50 µg/mL (≈ 248 µM)
MIC [6]: 50 µg/mL (≈ 248 µM)

O=C(O)c1cn(C2CC2)c2cc(N3CCNCC3)c(F)cc2c1=O [CIPROFLOXACIN]
MIC [2]: 25 µg/mL (≈ 75.4 µM)
MIC [6]: 10 µg/mL (≈ 30.2 µM)

c1ccc(-c2nc3ccccc3s2)nc1
Stability [7]: Stable
IC50 [1]: 27.5 µM
MIC [2]: 12.5 µg/mL (≈ 58.9 µM)
IC50 [3]: 20.4 µM
MIC [4]: 12.5 µg/mL (≈ 58.9 µM)
MIC [5]: 6.25 µg/mL (≈ 29.4 µM)
MIC [6]: 12.5 µg/mL (≈ 58.9 µM)

c1ccc2cc(-c3nc4ccccc4s3)ccc2c1
IC50 [1]: 48.2 µM
MIC [2]: > 200 µg/mL
IC50 [3]: 42.3 µM
MIC [4]: > 200 µg/mL
MIC [5]: > 200 µg/mL
MIC [6]: > 200 µg/mL
